Data set [1] has as its system Aβ40 in conditioned medium of cells stably expressing Amyloid Precursor Protein (APP). The experiment in a line: In vitro BACE cell-based assay (HEK cell assay), Aβ40 sandwich ELISA. The method, boiled down:
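Aβ40 in conditioned medium was quantified by time-resolved fluorescence sandwich ELISA (pAb40 capture 3 h at 4 °C, biotin-6E10 detection 2 h at 4 °C) after 24 h compound exposure of APP-expressing cells. Doses spanned 10 points from 100 μM or 10 μM top, 0.1% DMSO; IC50 was derived from percent of control.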
A general note: ELISA stands for enzyme-linked immunosorbent assay.

Data set [2] concerns the target T1, Cathepsin D (Cat D) (Homo sapiens, UniProt P07339).
T1 construct: Recombinant Cat D was expressed in CHO cells; made in house; host or cells: CHO cells
The experiment in a line: In vitro enzymatic Cathepsin D (Cat D) FRET assay. The data set is classed as biochemical. The following applies: read-out: CatD IC50. The method, boiled down:
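FRET read-out: a fluorophore/quencher-labelled peptide substrate is cleaved by 9 nM Cat D (recombinant, CHO-expressed) following a one-hour preincubation with inhibitor dilutions in DMSO. Tris buffer added to neutralize pH ends the reaction before fluorescence measurement.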

In data set [3] the test system is Abeta 40 in cerebrospinal fluid (CSF) and brain. The experiment in a line: In vivo inhibition of beta-secretase: Abeta 40 reduction in CSF and brain of the rat. The following applies: 10 mpk (unless otherwise noted), after 4 hrs. The source says:
In Vivo Inhibition of Beta-Secretase
Several animal models, including mouse, rat, dog, and monkey, may be used to screen for inhibition of beta-secretase activity in vivo following administration of a test compound sample. Animals used in this invention can be wild type, transgenic, or gene knockout animals. […] One to twenty-four hours following the administration of compound, animals are sacrificed, and brains as well as cerebrospinal fluid (CSF) and plasma are removed for analysis of A-beta levels and drug or test compound concentrations (Dovey et al., 2001, Journal of Neurochemistry, 76, 173-181) Beginning at time 0, animals are administered by oral gavage, or other means of delivery such as intravenous injection, an inhibitory test compound of up to 100 mg/kg in a standard, conventional formulation, such as 2% hydroxypropyl methylcellulose, 1% Tween80. A separate group of animals receive 2% hydroxypropyl methylcellulose, 1% Tween80 alone, containing no test compound, and serve as a vehicle-control group. […] CSF or brain supernatants are then analyzed for the presence of A-beta peptide by specific sandwich ELISA assays based on ECL (Electrochemiluminescence) technology. For example, rat Abeta40 is measured using biotinylated-4G8 (Signet) as a capture antibody and Fab40 (an in-house antibody specific to the C-terminal of Abeta40) as a detection antibody.

The subject of data set [4] is Aβ in lumbar CSF. As to conditions: Ph I clinical trial; cited from earlier work.
The conditions of data set [5]: people brought in after termination of the Ph I dosing trial; cited from earlier work.
Data set [6] concerns pigment epithelium of the rat's eye. As to conditions: higher compound dose given for three months; cited from earlier work.
Data set [7] concerns the target Beta Secretase enzyme (BACE1) (Homo sapiens, UniProt P56817). Nature of the data set: In vitro enzymatic BACE FRET assay. The following applies: read-out: BACE1 FRET assay IC50. The format is biochemical. A digest of the protocol:
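Readout: dequenched fluorescence (ex 488 nm/[…]) after neutralizing with Tris buffer. Reactions, begun by adding 50 nM quenched peptide substrate spanning the BACE cleavage site, were incubated one hour at pH 4.2 in 0.05 M acetate with 100 uM genapol and 10% final DMSO.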

Where two headings read alike, the source gives them in different places.

This is an account of results in US20140107109A1, “AMINO-DIHYDROTHIAZINE AND AMINO-DIOXIDO DIHYDROTHIAZINE COMPOUNDS AS BETA-SECRETASE ANTAGONISTS AND METHODS OF USE” (Amgen Inc., priority 2012, published 2014).

T1 sequence (P07339 65-412, species assumed): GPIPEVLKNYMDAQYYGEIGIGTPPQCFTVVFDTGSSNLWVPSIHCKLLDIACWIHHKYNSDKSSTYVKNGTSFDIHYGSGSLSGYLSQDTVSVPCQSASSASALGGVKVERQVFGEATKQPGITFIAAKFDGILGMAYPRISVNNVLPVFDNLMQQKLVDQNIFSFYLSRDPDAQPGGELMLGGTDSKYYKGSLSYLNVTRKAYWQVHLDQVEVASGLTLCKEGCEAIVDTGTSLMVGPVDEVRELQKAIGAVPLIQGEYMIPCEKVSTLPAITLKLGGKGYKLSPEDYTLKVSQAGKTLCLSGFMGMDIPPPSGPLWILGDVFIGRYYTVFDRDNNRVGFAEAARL
Chain of Beta Secretase enzyme (BACE1) (P56817 46-501): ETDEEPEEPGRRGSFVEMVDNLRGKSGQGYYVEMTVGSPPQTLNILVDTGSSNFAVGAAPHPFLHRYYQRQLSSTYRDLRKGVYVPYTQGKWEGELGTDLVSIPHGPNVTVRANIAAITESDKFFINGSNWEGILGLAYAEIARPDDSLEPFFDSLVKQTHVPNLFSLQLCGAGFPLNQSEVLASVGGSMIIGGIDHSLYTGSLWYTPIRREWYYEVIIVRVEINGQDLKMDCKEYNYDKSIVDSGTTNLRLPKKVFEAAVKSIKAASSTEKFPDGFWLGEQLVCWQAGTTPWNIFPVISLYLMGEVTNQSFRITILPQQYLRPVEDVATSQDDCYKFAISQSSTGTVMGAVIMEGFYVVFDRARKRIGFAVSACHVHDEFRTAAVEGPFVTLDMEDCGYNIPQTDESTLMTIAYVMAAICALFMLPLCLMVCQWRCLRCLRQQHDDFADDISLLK

The IC50 is the concentration that inhibits the measured activity by half. Take `COc1cnc(C(=O)Nc2ccc(F)c([C@]34COC[C@H]3S(=O)(=O)C(C)(C)C(N)=N4)c2)c(C)c1` [Example 430, N-(3-((4aS,7aS)-3-amino-2,2-dimethyl-1,1-dioxido-7,7a-dihydro-2H-furo[3,4-b][1,4]thiazin-4a(5H)-yl)-4-fluorophenyl)-5-methoxy-3-methyl-2-pyridinecarboxamide]: the concentration for half-maximal inhibition (IC50) in data set [1] (Homo sapiens, HEK293, average IC50, cell assay) stood at 11.7 nM; in data set [2] it was 144 µM. Moreover, in data set [3] (rat CSF), the “% reduction of rat CSF levels at 10pmk” value is listed as 31%. The “% reduction of rat brain levels at 10mpk” value in data set [3] (rat brain) is 1%.

For `C[C@@]1(c2cc(-c3cncnc3)c(F)cc2F)CCSC(N)=N1` [LY2811376, (S)-4-(2,4-difluoro-5-pyrimidin-5-yl-phenyl)-4-methyl-5,6-dihydro-4H-[1,3]thiazin-2-ylamine], the “safety and tolerability in healthy volunteers” value in data set [4] was “safe and well tolerated”.

Regarding `C[C@@]1(c2cc(-c3cncnc3)c(F)cc2F)CCSC(N)=N1` [LY 2811376], the “eye assessments of Ph I subjects” value in data set [5] is “did not show any abnormalities”. In addition, the rat toxicology finding entry in data set [6] is “damaged the pigment epithelium of the rat's eye”.

For the compound “N-(3-((4aR,7aS)-3-amino-2,2-dimethyl-1,1-dioxido-7,7a-dihydro-2H-furo[3,4-b][1,4]thiazin-4a(5H)-yl)-4-fluorophenyl)-5-chloro-3-methyl-2-pyridinecarboxamide, N-(3-((4aS,7aR)-3-amino-2,2-dimethyl-1,1-dioxido-7,7a-dihydro-2H-furo[3,4-b][1,4]thiazin-4a(5H)-yl)-4-fluorophenyl)-5-chloro-3-methyl-2-pyridinecarboxamide [Example 427]”, the half-inhibitory concentration (IC50) in data set [1] (average IC50, cell assay) came out at 33 nM; in data set [7] (average IC50, enzyme assay) it was 1 nM; in data set [2] it was 220 µM.

Regarding “N-(3-((4aR,7aS)-3-amino-2,2-dimethyl-1,1-dioxido-7,7a-dihydro-2H-furo[3,4-b][1,4]thiazin-4a(5H)-yl)-4-fluorophenyl)-5-methoxy-3-methyl-2-pyridinecarboxamide, N-(3-((4aS,7aR)-3-amino-2,2-dimethyl-1,1-dioxido-7,7a-dihydro-2H-furo[3,4-b][1,4]thiazin-4a(5H)-yl)-4-fluorophenyl)-5-methoxy-3-methyl-2-pyridinecarboxamide [Example 428]”, the IC50 in data set [1] (average IC50, cell assay) came to 37.3 nM; in data set [7] (average IC50, enzyme assay) it was 9.71 nM; in data set [2] it was 309 µM.

“N-(3-((7R)-9-amino-7-(fluoromethyl)-5,5-dioxido-5-thia-8-azaspiro[3.5]non-8-en-7-yl)-4-fluorophenyl)-3-chloro-1,7-naphthyridin-8-amine, N-(3-((7S)-9-amino-7-(fluoromethyl)-5,5-dioxido-5-thia-8-azaspiro[3.5]non-8-en-7-yl)-4-fluorophenyl)-3-chloro-1,7-naphthyridin-8-amine [Example 243]”: the IC50 amounted to 77.9 nM in data set [1] (average IC50, cell assay); 1.31 nM in data set [7] (average IC50, enzyme assay); 363 µM in data set [2].

Turning to “N-(3-((7R)-9-amino-7-(fluoromethyl)-5,5-dioxido-5-thia-8-azaspiro[3.5]non-8-en-7-yl)-4-fluorophenyl)-5-(difluoromethoxy)-3-methyl-2-pyridinecarboxamide, N-(3-((7S)-9-amino-7-(fluoromethyl)-5,5-dioxido-5-thia-8-azaspiro[3.5]non-8-en-7-yl)-4-fluorophenyl)-5-(difluoromethoxy)-3-methyl-2-pyridinecarboxamide [Example 410]”, the results for the half-maximal inhibitory concentration (IC50) in data set [1], in data set [7] and in data set [2] were 11.9 nM, 2.3 nM and 170 µM, respectively.
